Measured values reported in US8883410B2, “Method for determining the stability of organic methyleneamines in the presence of semicarbazide-sensitive amine oxidase” (Sanofi, priority 2007, dated 2014).

Key:
[1] = molecular target: T1, human SSAO, full-length, C-terminal 6xHIS tag (Homo sapiens, UniProt Q16853); assay: Benzylamine stability in lysate of cells expressing full-length SSAO with C-terminal 6xHIS tag, LC/MS/MS; type: in vitro ADME
T1 construct: expressed in transfected cells; cell lysate
T1 sequence (Q16853 1-763): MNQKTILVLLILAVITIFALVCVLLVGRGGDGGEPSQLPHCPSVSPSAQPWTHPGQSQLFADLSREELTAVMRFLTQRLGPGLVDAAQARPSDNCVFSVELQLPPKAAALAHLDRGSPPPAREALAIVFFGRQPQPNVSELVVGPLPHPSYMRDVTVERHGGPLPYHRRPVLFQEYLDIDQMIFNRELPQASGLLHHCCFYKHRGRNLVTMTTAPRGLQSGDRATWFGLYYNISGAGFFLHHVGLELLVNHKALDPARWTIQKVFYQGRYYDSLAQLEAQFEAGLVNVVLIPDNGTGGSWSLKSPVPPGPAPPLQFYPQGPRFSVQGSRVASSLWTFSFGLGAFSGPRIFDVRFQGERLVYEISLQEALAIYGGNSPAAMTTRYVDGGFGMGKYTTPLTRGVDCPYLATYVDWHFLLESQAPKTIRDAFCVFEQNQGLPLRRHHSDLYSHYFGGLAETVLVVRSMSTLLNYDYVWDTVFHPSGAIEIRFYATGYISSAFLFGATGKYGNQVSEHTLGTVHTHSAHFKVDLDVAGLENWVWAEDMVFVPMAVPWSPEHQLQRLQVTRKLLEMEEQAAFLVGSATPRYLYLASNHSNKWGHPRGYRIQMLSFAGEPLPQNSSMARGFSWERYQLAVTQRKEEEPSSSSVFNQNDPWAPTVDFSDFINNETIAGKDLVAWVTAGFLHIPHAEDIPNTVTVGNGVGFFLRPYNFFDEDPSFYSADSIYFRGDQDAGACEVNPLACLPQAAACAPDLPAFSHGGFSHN
Method: (§1) The expression constructs were prepared by cloning these PCR products into the pCDNA5-FRT-To-DEST vector (Invitrogen, Gateway System™). The forward and reverse DNA sequence of each construct was confirmed including expressed sequences and at least 100 base pairs either side of this. Stable cell lines for Flp-In CHO, Flp-In CHO T-Rex, and Flp-In HEK 293 (Invitrogen, Flp-In system™) were generated using these 6 constructs according to manufacturer's instructions. Cells were co-transfected with the regulatory vector, pOG44, and each of the pCDNA5-FRT-To-DEST constructs using Lipfectamine (Invitrogen) according to manufacturer's instructions. Thus, 18 cell lines were generated: CHO Flp-In full-length SSAO; CHO Flp-In full-length SSAO with C-terminal 6×HIS tag; CHO Flp-In T1 SSAO; CHO Flp-In T1 SSAO with C-terminal 6×HIS tag; CHO Flp-In T2 SSAO; CHO Flp-In T2 SSAO with C-terminal 6×HIS tag; CHO T-Rex Flp-In full-length SSAO; CHO T-Rex Flp-In full-length SSAO with C-terminal 6×HIS tag; CHO T-Rex Flp-In T1 SSAO; CHO T-Rex Flp-In T1 SSAO with C-terminal 6×HIS tag; CHO T-Rex Flp-In T2 SSAO; CHO Flp-In T2 SSAO with C-terminal 6×HIS tag; HEK 293 Flp-In full-length SSAO; HEK 293 Flp-In full-length SSAO with C-terminal 6×HIS tag; HEK 293 Flp-In T1 SSAO; HEK 293 Flp-In T1 SSAO with C-terminal 6×HIS tag; HEK 293 Flp-In T2 SSAO; HEK 293 Flp-In T2 SSAO with C-terminal 6×HIS tag.
(§2) Adherent CHO cells were cultured at 37° C., 5% CO2 in media containing Ham's F12, 10% fetal bovine serum, 2 mM L-glutamine, 1% Penicillin/Streptomycin, 300 μM hygromycin B. Adherent HEK 293 cells were cultured at 37° C., 5% CO2 in D-MEM (high glucose), 10% fetal bovine serum, 2 mM L-glutamine, and 200 μM hygromycin B. Stable transformants were identified by loss of zeocin resistance. Once the cells were 80% confluent, SSAO expression was induced by the addition of Tetracycline to 1 μg/mL. Following 18 hours, the cells were harvested using a trypsin treatment of 3 minutes, at room temperature. Cells were washed 3 times in phosphate buffered saline before flash freezing in liquid nitrogen.
(§3) For the preparation of cell lysate for activity testing, frozen cell pellets were resuspended in lysate buffer containing 10 mM Tris-HCl (pH 7.2), 150 mM NaCl, 1.5 mM MgCl2, 1% v/v NP-40 and incubated for 15 minutes on ice. Lysate was cleared by centrifugation 800×g for 10 minutes, 4° C. and stored in aliquots at −80° C. until use. Proteins were determined using Pierce Coomassie Protein Reagent, according to manufacturer's instructions.
(§4) For each assay run, 1 mL of cell lysate (1.5 mg/mL protein) was mixed with benzylamine to 2000 ng/mL final concentration. At each corresponding time point, […] the incubation mixture was transferred to a microcentrifuge tube (1.7 mL) and mixed with 50 μL of acetonitrile. The tubes were vortex mixed briefly to ensure complete mixing and then centrifuged at 10,000×g for 5 minutes. The supernatant was removed and 50 μL was transferred to an autosampler vial and mixed with 50 μL of water before LC/MS/MS analysis. Benzylamine remaining in the lysate was analyzed with LC/MS/MS method.
LC/MS/MS analysis was performed with a PE Sciex API 3000 mass spectrometer under the following conditions listed below and in Tables 1 and 2: […]

[2] = molecular target: T2, human SSAO, full-length, untagged (Homo sapiens, UniProt Q16853); assay: Benzylamine stability in lysate of cells expressing full-length SSAO (untagged), LC/MS/MS; type: in vitro ADME
T2 construct: expressed in transfected cells; cleared NP-40 cell lysate
T2 sequence (Q16853 1-763): T1 sequence (Q16853 1-763)
Method: as §1, §2, §3, §4
LC/MS/MS analysis was performed with a PE Sciex API 3000 mass spectrometer under the following conditions listed below and in Tables 1 and 2:
The active lysates from CHO Flp-In, CHO Flp-In T-Rex or HEK293 Flp-In expressing full-length SSAO (untagged) were subsequently tested and activity confirmed (Table 4).

With `NCc1ccccc1` [Benzylamine] as the compound, how does the “Benzylamine Remaining (%)” value ([1]; CHO Flp-In T-Rex lysate, 0 min) read?
Its value is 100%.

What about the “Benzylamine Remaining (%)” value ([1]; CHO Flp-In T-Rex lysate, 10 min) of the same compound?
Its value is 94%.

What about the “Benzylamine Remaining (%)” value ([1]; CHO Flp-In T-Rex lysate, 2 h) of the same compound?
The value was 59%.

And the “Benzylamine Remaining (%)” value ([1]; CHO Flp-In lysate, 0 min)?
The value was 100%.

What about the “Benzylamine Remaining (%)” value ([1]; CHO Flp-In lysate, 10 min) of the same compound?
The value was 101%.

And the “Benzylamine Remaining (%)” value ([1]; CHO Flp-In lysate, 2 h)?
The value was 73%.

What about the “Benzylamine Remaining (%)” value ([1]; HEK293 lysate, 0 min) of the same compound?
The value was 100%.

What about the “Benzylamine Remaining (%)” value ([1]; HEK293 lysate, 10 min) of the same compound?
The value was 105%.

And the “Benzylamine Remaining (%)” value ([1]; HEK293 lysate, 2 h)?
Its value is 98%.

What about the “Benzylamine Remaining (%)” value ([2]; CHO Flp-In T-Rex lysate, Full-length SSAO, tag None, 0 min (Table 3)) of the same compound?
The value was 100%.

And the “Benzylamine Remaining (%)” value ([2]; CHO Flp-In T-Rex lysate, Full-length SSAO, tag None, 10 min (Table 3))?
The value was 6%.

And the “Benzylamine Remaining (%)” value ([2]; CHO Flp-In T-Rex lysate, Full-length SSAO, tag None, 2 h (Table 3))?
Its value is 0%.

What about the “Benzylamine Remaining (%)” value ([2]; CHO Flp-In T-Rex, full-length SSAO (untagged), 0 min, subsequent test (Table 4)) of the same compound?
The value was 100%.

And the “Benzylamine Remaining (%)” value ([2]; CHO Flp-In T-Rex, full-length SSAO (untagged), 10 min, subsequent test (Table 4))?
The value was 16%.

What about the “Benzylamine Remaining (%)” value ([2]; CHO Flp-In T-Rex, full-length SSAO (untagged), 30 min, subsequent test (Table 4)) of the same compound?
Its value is 1%.

And the “Benzylamine Remaining (%)” value ([2]; CHO Flp-In lysate, Full-length SSAO, tag None, 0 min (Table 3))?
The value was 100%.

And the “Benzylamine Remaining (%)” value ([2]; CHO Flp-In lysate, Full-length SSAO, tag None, 10 min (Table 3))?
Its value is 1%.

What about the “Benzylamine Remaining (%)” value ([2]; CHO Flp-In lysate, Full-length SSAO, tag None, 2 h (Table 3)) of the same compound?
Its value is 1%.

And the “Benzylamine Remaining (%)” value ([2]; CHO Flp-In, full-length SSAO (untagged), 0 min, subsequent test (Table 4))?
The value was 100%.

What about the “Benzylamine Remaining (%)” value ([2]; CHO Flp-In, full-length SSAO (untagged), 10 min, subsequent test (Table 4)) of the same compound?
The value was 9%.

And the “Benzylamine Remaining (%)” value ([2]; CHO Flp-In, full-length SSAO (untagged), 30 min, subsequent test (Table 4))?
The value was 1%.

What about the “Benzylamine Remaining (%)” value ([2]; HEK293 Flp-In, full-length SSAO (untagged), 0 min, subsequent test (Table 4)) of the same compound?
The value was 100%.

And the “Benzylamine Remaining (%)” value ([2]; HEK293 Flp-In, full-length SSAO (untagged), 10 min, subsequent test (Table 4))?
Its value is 50%.

What about the “Benzylamine Remaining (%)” value ([2]; HEK293 Flp-In, full-length SSAO (untagged), 30 min, subsequent test (Table 4)) of the same compound?
Its value is 9%.

And the “Benzylamine Remaining (%)” value ([2]; HEK293 lysate, Full-length SSAO, tag None, 0 min (Table 3))?
The value was 100%.

What about the “Benzylamine Remaining (%)” value ([2]; HEK293 lysate, Full-length SSAO, tag None, 10 min (Table 3)) of the same compound?
Its value is 58%.

What about the “Benzylamine Remaining (%)” value ([2]; HEK293 lysate, Full-length SSAO, tag None, 2 h (Table 3)) of the same compound?
The value was 2%.
